Results taken from ChEMBL document CHEMBL5316328, “Discovery of AXL Degraders with Improved Potencies in Triple-Negative Breast Cancer (TNBC) Cells” (J Med Chem, 2023).
Activity calls are given as the source filed them. The rule behind the calls is not given here.

Key:
[1] = biological target: T1, Protein cereblon/Tyrosine-protein kinase receptor UFO (Homo sapiens, UniProt P30530+Q96SW2); test: PROTAC activity at CRBN/AXL in human MDA-MB-231 cells assessed as induction of AXL degradation incubated for 24 hrs by immunoblot analysis; type: cell-based
[2] = biological target: T1, Protein cereblon/Tyrosine-protein kinase receptor UFO; test: PROTAC activity at CRBN/AXL in human MDA-MB-231 cells assessed as induction of AXL degradation at 40 nM incubated for 18 to 24 hrs by Western blot analysis; type: cell-based; conditions: time 18-24 hrs
Target sequence in this assay (P30530 26-894 limits assumed): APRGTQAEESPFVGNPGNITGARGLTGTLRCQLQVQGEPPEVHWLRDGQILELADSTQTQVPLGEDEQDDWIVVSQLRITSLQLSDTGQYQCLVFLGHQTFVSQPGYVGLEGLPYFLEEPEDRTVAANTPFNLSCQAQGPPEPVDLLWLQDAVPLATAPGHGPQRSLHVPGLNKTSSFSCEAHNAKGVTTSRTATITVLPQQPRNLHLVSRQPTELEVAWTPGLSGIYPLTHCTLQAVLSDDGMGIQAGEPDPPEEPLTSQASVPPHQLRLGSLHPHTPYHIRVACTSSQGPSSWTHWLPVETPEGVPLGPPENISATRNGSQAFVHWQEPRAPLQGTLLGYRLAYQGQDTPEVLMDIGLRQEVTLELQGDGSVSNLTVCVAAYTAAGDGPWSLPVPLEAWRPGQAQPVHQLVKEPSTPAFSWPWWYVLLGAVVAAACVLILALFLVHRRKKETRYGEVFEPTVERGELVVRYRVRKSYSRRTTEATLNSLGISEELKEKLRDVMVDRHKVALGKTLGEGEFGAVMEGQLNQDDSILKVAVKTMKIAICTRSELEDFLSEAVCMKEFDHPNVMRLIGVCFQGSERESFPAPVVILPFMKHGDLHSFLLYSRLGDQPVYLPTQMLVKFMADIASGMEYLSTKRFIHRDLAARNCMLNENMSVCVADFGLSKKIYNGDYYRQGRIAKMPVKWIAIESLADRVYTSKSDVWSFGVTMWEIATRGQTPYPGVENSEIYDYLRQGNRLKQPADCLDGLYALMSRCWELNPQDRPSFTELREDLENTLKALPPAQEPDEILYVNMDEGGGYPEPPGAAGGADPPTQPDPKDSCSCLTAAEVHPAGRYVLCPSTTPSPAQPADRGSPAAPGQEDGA
Target sequence in this assay (Q96SW2 whole entry partner): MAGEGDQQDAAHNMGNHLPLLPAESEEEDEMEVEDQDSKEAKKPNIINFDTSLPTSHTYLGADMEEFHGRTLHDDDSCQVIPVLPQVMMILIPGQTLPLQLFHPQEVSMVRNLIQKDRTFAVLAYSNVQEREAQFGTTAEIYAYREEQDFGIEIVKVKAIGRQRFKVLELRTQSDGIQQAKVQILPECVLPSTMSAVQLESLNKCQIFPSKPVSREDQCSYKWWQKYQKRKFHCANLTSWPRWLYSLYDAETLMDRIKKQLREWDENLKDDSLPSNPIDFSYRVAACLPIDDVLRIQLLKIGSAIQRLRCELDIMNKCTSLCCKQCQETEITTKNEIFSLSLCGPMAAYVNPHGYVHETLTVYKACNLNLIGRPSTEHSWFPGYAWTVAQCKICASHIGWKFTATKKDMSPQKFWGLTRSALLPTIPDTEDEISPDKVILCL

[3] = biological target: T1, Protein cereblon/Tyrosine-protein kinase receptor UFO; test: PROTAC activity at CRBN/AXL in human MDA-MB-231 cells assessed as induction of AXL degradation by measuring half-life of AXL incubated upto 20 hrs in the presence of cycloheximide by Western blot analysis; type: cell-based
Target sequence in this assay (P30530 26-894 limits assumed): as the sequence (P30530 26-894 limits assumed) above
Target sequence in this assay (Q96SW2 whole entry partner): as the sequence (Q96SW2 whole entry partner) above

[4] = biological target: Eukaryotic peptide chain release factor GTP-binding subunit ERF3A (Homo sapiens) (UniProt P15170); test: Induction of GSPT1 degradation in human MDA-MB-231 cells at 0.016 to 10 nM incubated for 24 hrs by Western blot analysis; type: cell-based; conditions: dose 0.016-10 nM
[5] = biological target: Zinc finger protein Aiolos (Homo sapiens) (UniProt Q9UKT9); test: Induction of IKZF3 degradation in human MDA-MB-231 cells at 10 uM incubated for 24 hrs by Western blot analysis; type: cell-based
[6] = biological target: T1, Protein cereblon/Tyrosine-protein kinase receptor UFO; test: PROTAC activity at CRBN/AXL in human MDA-MB-231 cells assessed as induction of AXL degradation at 40 nM preincubated with MG-132 for 2 hrs followed by compound treatment and measured after 24 hrs by Western blot analysis; type: cell-based
Target sequence in this assay (P30530 26-894 limits assumed): as the sequence (P30530 26-894 limits assumed) above
Target sequence in this assay (Q96SW2 whole entry partner): as the sequence (Q96SW2 whole entry partner) above

[7] = biological target: T1, Protein cereblon/Tyrosine-protein kinase receptor UFO; test: PROTAC activity at CRBN/AXL in human MDA-MB-231 cells assessed as induction of AXL degradation at 40 nM preincubated with MLN-4924 for 2 hrs followed by compound treatment and measured after 24 hrs by Western blot analysis; type: cell-based
Target sequence in this assay (P30530 26-894 limits assumed): as the sequence (P30530 26-894 limits assumed) above
Target sequence in this assay (Q96SW2 whole entry partner): as the sequence (Q96SW2 whole entry partner) above

[8] = biological target: T1, Protein cereblon/Tyrosine-protein kinase receptor UFO; test: PROTAC activity at CRBN/AXL in human MDA-MB-231 cells expressing AXL assessed as induction of AXL degradation at 0.016 to 10 nM incubated for 24 hrs by Western blot analysis; type: cell-based; conditions: dose 0.016-10 nM
Target sequence in this assay (P30530 26-894 limits assumed): as the sequence (P30530 26-894 limits assumed) above
Target sequence in this assay (Q96SW2 whole entry partner): as the sequence (Q96SW2 whole entry partner) above

MDA-MB-231 [9] = test: Antiproliferative activity against human MDA-MB-231 cells expressing AXL assessed as inhibition of cell growth incubated for 72 hrs by CCK8 assay; type: functional, cell-based; conditions: MDA-MB-231, 72 h
MDA-MB-436 = test: Antiproliferative activity against human MDA-MB-436 cells expressing AXL assessed as inhibition of cell growth incubated for 72 hrs by CCK8 assay; type: functional, cell-based; conditions: MDA-MB-436, 72 h
MDA-MB-453 = test: Antiproliferative activity against human MDA-MB-453 cells assessed as inhibition of cell growth incubated for 72 hrs by CCK8 assay; type: functional, cell-based; conditions: MDA-MB-453, 72 h
MDA-MB-231 [10] = test: Antiproliferative activity against human MDA-MB-231 cells assessed as reduction in cell viability preincubated with N-(4-((6,7-dimethoxyquinazolin-4-yl)oxy)-3-fluorophenyl)-6-ethyl-1,2-dimethyl-4-oxo-1,4-dihydroquinoline-3-carboxamide for 6 hrs followed by compound treatment and measured after 24 hrs by CCK8 assay; type: functional, cell-based
MDA-MB-231 [11] = test: Induction of cell cycle arrest in human MDA-MB-231 cells assessed as G0/G1 phase cells at 33.3 nM incubated for 24 hrs by PI staining based flow cytometric analysis (reference value: 63.32 to 64.94%); type: functional
MDA-MB-231 [12] = test: Induction of cell cycle arrest in human MDA-MB-231 cells assessed as S phase cells at 33.3 nM incubated for 24 hrs by PI staining based flow cytometric analysis (reference value: 9.64 to 10.79%); type: functional
MDA-MB-231 [13] = test: Induction of cell cycle arrest in human MDA-MB-231 cells assessed as accumulation of cell at G2/M phase at 33.3 nM incubated for 24 hrs by PI staining based flow cytometric analysis (reference value: 24.34 to 24.44%); type: functional
MDA-MB-231 [14] = test: Induction of cell cycle arrest in human MDA-MB-231 cells assessed as G0/G1 phase cells at 100 nM incubated for 24 hrs by PI staining based flow cytometric analysis (reference value: 63.32 to 64.94%); type: functional
MDA-MB-231 [15] = test: Induction of cell cycle arrest in human MDA-MB-231 cells assessed as S phase cells at 300 nM incubated for 24 hrs by PI staining based flow cytometric analysis (reference value: 9.64 to 10.79%); type: functional
MDA-MB-231 [16] = test: Induction of cell cycle arrest in human MDA-MB-231 cells assessed as accumulation of cell at G2/M phase at 300 nM incubated for 24 hrs by PI staining based flow cytometric analysis (reference value: 24.34 to 24.44%); type: functional
[17] = biological target: Serine/threonine-protein kinase AKT (Homo sapiens) (UniProt P31751+Q9Y243+P31749); test: Inhibition of AKT phosphorylation in human MDA-MB-231 incubated for 18 hrs by Western blot analysis; type: cell-based; conditions: dose 1.2-100 nM
MDA-MB-231 [18] = test: Induction of apoptosis in human MDA-MB-231 cells assessed as necrotic cells at 33.3 nM incubated for 48 hrs by Annexin V-PE staining based flow cytometric analysis (reference value: 2.64 to 3.23%); type: functional
MDA-MB-231 [19] = test: Induction of apoptosis in human MDA-MB-231 cells assessed as early apoptotic cells at 33.3 nM incubated for 48 hrs by Annexin V-PE staining based flow cytometric analysis (reference value: 3.95 to 3.74%); type: functional
MDA-MB-231 [20] = test: Induction of apoptosis in human MDA-MB-231 cells assessed as late apoptotic cells at 33.3 nM incubated for 48 hrs by Annexin V-PE staining based flow cytometric analysis (reference value: 0.32 to 0.82%); type: functional
MDA-MB-231 [21] = test: Induction of apoptosis in human MDA-MB-231 cells assessed as early apoptotic cells at 100 nM incubated for 48 hrs by Annexin V-PE staining based flow cytometric analysis (reference value: 3.95 to 3.74%); type: functional
MDA-MB-231 [22] = test: Induction of apoptosis in human MDA-MB-231 cells assessed as necrotic cells at 100 nM incubated for 48 hrs by Annexin V-PE staining based flow cytometric analysis (reference value: 2.64 to 3.23%); type: functional
MDA-MB-231 [23] = test: Induction of apoptosis in human MDA-MB-231 cells assessed as necrotic cells at 300 nM incubated for 48 hrs by Annexin V-PE staining based flow cytometric analysis (reference value: 2.64 to 3.23%); type: functional
MDA-MB-231 [24] = test: Induction of apoptosis in human MDA-MB-231 cells assessed as upregulation of cleaved PARP expression by Western blot analysis; type: functional, cell-based; conditions: dose 11.1-300 nM
[25] = Toxicity in Balb/c nude mouse xenografted with human MDA-MB-231 cells assessed as mortality at 10 to 20 mg/kg, ip administered for 22 days and measured 24 hrs post last dose; type: organism-based; conditions: in vivo, 552 h, dose 10-20 mg/kg, time 23 day
Mus musculus = test: In vivo PROTAC activity at CRBN/AXL in human MDA-MB-231 cells xenografted Balb/c mouse assessed as degradation of AXL in tumor at 10 to 20 mg/kg, ip administered for 22 days and measured 24 hrs post last dose by Western blot analysis; type: functional, organism-based; conditions: dose 10-20 mg/kg, time 23.0 day
Homo sapiens = organism: Homo sapiens; test: Antitumor activity against patient-derived breast cancer organoid assessed as decrease in organoid size at 5 uM incubated for 120 hrs by bright-field imaging microscopic analysis; type: functional, tissue-based

Chain of Eukaryotic peptide chain release factor GTP-binding subunit ERF3A (Homo sapiens) (P15170 whole entry): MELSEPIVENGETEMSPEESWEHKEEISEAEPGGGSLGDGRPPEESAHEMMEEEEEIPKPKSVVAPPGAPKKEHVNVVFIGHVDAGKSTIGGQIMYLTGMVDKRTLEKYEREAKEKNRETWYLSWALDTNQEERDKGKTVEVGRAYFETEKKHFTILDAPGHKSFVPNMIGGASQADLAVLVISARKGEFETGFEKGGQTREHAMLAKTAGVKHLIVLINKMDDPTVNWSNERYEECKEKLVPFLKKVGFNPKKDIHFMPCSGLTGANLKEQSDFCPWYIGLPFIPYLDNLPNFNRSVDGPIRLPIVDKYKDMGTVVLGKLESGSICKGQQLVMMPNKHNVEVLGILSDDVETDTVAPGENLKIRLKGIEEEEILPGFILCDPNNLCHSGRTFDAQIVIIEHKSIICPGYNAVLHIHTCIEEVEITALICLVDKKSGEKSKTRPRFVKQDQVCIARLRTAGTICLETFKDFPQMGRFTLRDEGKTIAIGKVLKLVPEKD
Chain of Serine/threonine-protein kinase AKT (Homo sapiens) (P31749 whole entry, looked up): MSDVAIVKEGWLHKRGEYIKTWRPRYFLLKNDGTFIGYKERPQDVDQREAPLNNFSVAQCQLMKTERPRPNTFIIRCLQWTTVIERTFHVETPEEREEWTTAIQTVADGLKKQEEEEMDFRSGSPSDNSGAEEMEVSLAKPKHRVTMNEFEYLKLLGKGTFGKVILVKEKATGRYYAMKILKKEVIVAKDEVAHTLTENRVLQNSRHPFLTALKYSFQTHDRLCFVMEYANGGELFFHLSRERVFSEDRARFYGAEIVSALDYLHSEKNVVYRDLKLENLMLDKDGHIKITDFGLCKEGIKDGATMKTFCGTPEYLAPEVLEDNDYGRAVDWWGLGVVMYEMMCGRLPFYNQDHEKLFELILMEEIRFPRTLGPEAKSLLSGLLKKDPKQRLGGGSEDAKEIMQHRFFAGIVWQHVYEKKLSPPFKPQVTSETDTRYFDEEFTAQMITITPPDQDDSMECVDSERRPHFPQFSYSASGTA
Chain of Serine/threonine-protein kinase AKT (Homo sapiens) (P31751 whole entry, looked up): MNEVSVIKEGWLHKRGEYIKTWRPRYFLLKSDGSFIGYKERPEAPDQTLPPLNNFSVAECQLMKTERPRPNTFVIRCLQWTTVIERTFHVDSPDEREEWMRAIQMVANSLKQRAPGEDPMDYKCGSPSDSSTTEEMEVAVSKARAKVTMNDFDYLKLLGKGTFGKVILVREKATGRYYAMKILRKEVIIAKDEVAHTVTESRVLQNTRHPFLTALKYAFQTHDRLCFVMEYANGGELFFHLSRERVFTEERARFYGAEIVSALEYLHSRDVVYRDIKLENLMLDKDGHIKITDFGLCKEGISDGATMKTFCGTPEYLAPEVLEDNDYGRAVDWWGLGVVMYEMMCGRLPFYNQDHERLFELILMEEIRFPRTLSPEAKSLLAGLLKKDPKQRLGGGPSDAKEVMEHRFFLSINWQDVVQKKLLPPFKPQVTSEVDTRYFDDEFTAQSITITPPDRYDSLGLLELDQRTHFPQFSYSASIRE
Chain of Serine/threonine-protein kinase AKT (Homo sapiens) (Q9Y243 whole entry, looked up): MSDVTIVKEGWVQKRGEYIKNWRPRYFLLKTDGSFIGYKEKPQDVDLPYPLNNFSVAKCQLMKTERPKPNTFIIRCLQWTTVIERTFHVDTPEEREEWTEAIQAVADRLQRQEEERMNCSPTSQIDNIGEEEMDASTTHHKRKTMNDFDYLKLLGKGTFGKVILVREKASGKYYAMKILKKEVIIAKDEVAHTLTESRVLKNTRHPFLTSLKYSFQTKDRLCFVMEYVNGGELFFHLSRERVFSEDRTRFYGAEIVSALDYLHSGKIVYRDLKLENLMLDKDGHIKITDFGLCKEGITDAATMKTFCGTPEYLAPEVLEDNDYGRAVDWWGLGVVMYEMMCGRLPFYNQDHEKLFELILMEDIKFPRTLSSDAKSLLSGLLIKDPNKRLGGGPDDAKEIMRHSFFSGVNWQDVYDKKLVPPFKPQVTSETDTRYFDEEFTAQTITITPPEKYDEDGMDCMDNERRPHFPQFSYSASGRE
Chain of Zinc finger protein Aiolos (Homo sapiens) (Q9UKT9 whole entry): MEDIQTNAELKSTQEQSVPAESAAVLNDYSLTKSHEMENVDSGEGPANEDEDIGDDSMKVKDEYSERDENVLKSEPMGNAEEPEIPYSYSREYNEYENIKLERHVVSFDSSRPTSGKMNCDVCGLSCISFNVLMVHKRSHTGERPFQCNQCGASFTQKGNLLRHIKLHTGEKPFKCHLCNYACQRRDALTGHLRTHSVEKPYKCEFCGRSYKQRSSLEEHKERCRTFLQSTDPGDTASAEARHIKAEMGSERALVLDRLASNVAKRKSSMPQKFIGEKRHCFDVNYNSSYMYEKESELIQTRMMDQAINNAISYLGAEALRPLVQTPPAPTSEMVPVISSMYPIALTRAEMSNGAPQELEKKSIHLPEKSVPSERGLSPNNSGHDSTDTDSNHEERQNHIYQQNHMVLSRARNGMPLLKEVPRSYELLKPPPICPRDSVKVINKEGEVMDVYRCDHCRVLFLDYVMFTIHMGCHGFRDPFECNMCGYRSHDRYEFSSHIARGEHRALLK

## CCc1ccc2c(c1)c(=O)c(C(=O)Nc1ccc(Oc3ncnc4cc(OCCCCCC(=O)Nc5ccc6c(c5)CN(C5CCC(=O)NC5=O)C6=O)c(OC)cc34)c(F)c1)c(C)n2C (stereo not given)
[1]
  Activity: Dose-Dependent Effect
  EC50: 5 nM
[2]
  Activity: Active
[3]
  T1/2: 8 h
[4]
  Activity: Active
[5]
  Activity: inactive
[6]
  Activity: inactive
[7]
  Activity: inactive
[8]
  Activity: Active
MDA-MB-231 [9]
  IC50: 10 nM
MDA-MB-436
  IC50: 5 nM
MDA-MB-453
  IC50: > 5000 nM
MDA-MB-231 [10]
  Activity: inactive
MDA-MB-231 [11]
  Activity: 63.32%
MDA-MB-231 [12]
  Activity: 14.52%
MDA-MB-231 [13]
  Activity: 22.85%
MDA-MB-231 [14]
  Activity: 46.81%
MDA-MB-231 [15]
  Activity: 16.29%
MDA-MB-231 [16]
  Activity: 29.55%
[17]
  inhibition: Dose-Dependent Effect
MDA-MB-231 [18]
  Activity: 1.2%
MDA-MB-231 [19]
  Activity: 6.69%
MDA-MB-231 [20]
  Activity: 0.56%
MDA-MB-231 [21]
  Activity: 14.51%
MDA-MB-231 [22]
  Activity: 1.17%
MDA-MB-231 [23]
  Activity: 4.59%
MDA-MB-231 [24]
  Activity: Dose-Dependent Effect
[25]
  Activity: Non-Toxic
Mus musculus
  Activity: Active
Homo sapiens
  Activity: Active
